As usually defined, the IC50 is the concentration that inhibits the measured activity by half.

Data on twelve compounds can be found in US5747499A, “Anti-cancer compounds” (British Technology Group Limited, priority 1994, dated 1998).

Series [1] concerns the target T1, thymidylate synthase (Mus musculus, UniProt P07607).
T1 construct: Thymidylate synthase may be obtained in partially purified form from L1210 mouse leukaemia cells; endogenous in cells; host or cells: L1210 mouse leukaemia cells
The series can be described thus: Test (a): in vitro assay, inhibition of thymidylate synthase (partially purified from L1210 mouse leukaemia cells). The series is classed as biochemical. The source says:
(a) An in vitro assay which determines the ability of a test compound to inhibit the enzyme thymidylate synthase.

Series [2] has as its system leukaemia cell line L1210. Kind of series: Test (b): inhibition of growth of the leukaemia cell line L1210 in cell culture. The note with it: Mus musculus. The series is classed as cell-based. The source says: (b) An assay which determines the ability of a test compound to inhibit the growth of the leukaemia cell line L1210 in cell culture. The test may be similar to that described in UK Patent Specification No. 2065653B and has been described by Jones et al. (J. Med. Chem., 1985, 28, 1468);

For series [3] the following is noted: Cancer Treatment Reports, 1986, 70, 1335; cited from earlier work.
The test system of series [4] is human breast, ovarian and liver cancer. To be noted: in vivo; cited from earlier work.
[5] abbreviates: thymidylate synthase partially purified from L1210 mouse leukaemia cells, read-out: IC50 in test (a).

Where two headings read alike, the source gives them in different places.

T1 sequence (P07607 whole entry): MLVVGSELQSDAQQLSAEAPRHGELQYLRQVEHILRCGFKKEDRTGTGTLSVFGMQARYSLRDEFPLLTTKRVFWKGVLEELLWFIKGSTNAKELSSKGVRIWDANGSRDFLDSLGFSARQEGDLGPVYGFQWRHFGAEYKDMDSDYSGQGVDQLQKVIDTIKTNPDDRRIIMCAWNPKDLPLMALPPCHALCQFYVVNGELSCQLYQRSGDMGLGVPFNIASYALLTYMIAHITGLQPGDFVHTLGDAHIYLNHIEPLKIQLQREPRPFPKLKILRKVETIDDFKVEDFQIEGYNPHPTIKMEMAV

In the case of `Cc1nc2cc3c(cc2c(=O)[nH]1)[C@H](N(C)c1ccc(C(=O)N[C@@H](CCC(=O)N[C@@H](C(=O)O)c2ccc(CC(=O)O)cc2)C(=O)O)c(F)c1)CC3` (mixture of isomers) [Example 12, (2RS)-2-{N-{N-{o-Fluoro-p-[N-methyl-N-((6RS)-2-methyl-4-oxo-3,4,7,8-tetrahydro-6H-cyclopenta[g]quinazolin-6-yl)amino]benzoyl}-L-γ-glutamyl}amino}-2-[p-(carboxymethyl)phenyl]acetic acid], the IC50 in series [1] turned out to be 4 nM; in series [2] it was 3900 nM.

For the compound `Cc1nc2cc3c(cc2c(=O)[nH]1)C(N(C)c1ccc(C(=O)N[C@@H](CCc2nnn(CC(=O)O)n2)C(=O)O)c(F)c1)CC3` (mixture of isomers) [Example 10, (2S)-2-{o-Fluoro-p-[N-methyl-N-((6RS)-2-methyl-4-oxo-3,4,7,8-tetrahydro-6H-cyclopenta[g]quinazolin-6-yl)amino]benzamido}-4-(2-carboxymethyltetrazol-5-yl)-butyric acid], the values for the IC50 in series [1] and in series [2] were 8.8 nM and 1200 nM, respectively.

Regarding `C#CCN(c1ccc(C(=O)N[C@@H](CCC(=O)N[C@H](C)C(=O)O)C(=O)O)cc1)C1CCc2cc3nc(C)nc(O)c3cc21` (mixture of isomers) [Example 19, N-{N-{p-[N-((6RS)-2-methyl-4-oxo-3,4,7,8-tetrahydro-6H-cyclopenta[g]quinazolin-6-yl)-N-(prop-2-ynyl)amino]benzoyl}-L-γ-glutamyl}-D-alanine], the results for the IC50 in series [1] (setting [5]) and in series [2] were 1.84 nM and 520 nM, respectively.

As to `Cc1nc2cc3c(cc2c(=O)[nH]1)C(N(C)c1ccc(C(=O)N[C@@H](CCc2nnnn2CC(=O)O)C(=O)O)c(F)c1)CC3` (mixture of isomers) [Example 11, (2S)-2-{o-Fluoro-p-[N-methyl-N-((6RS)-2-methyl-4-oxo-3,4,7,8-tetrahydro-6H-cyclopenta[g]quinazolin-6-yl)amino]benzamido}-4-(1-carboxymethyltetrazol-5-yl)-butyric acid], the IC50 in series [1] was determined as 14.8 nM; in series [2], 23000 nM.

As to `C#CCN(c1ccc(C(=O)N[C@@H](CCC(=O)N[C@H](CCC(=O)O)c2nnn[nH]2)C(=O)O)cc1)C1CCc2cc3nc(C)[nH]c(=O)c3cc21` (mixture of isomers) [Example 18, (4R)-4-{N-{N-{p-[N-((6RS)-2-Methyl-4-oxo-3,4,7,8-tetrahydro-6H-cyclopenta[g]quinazolin-6-yl)-N-(prop-2-ynyl)amino]benzoyl}-L-γ-glutamyl}amino}-4-(tetrazol-5-yl)butyric acid], the results for the IC50 in series [1] and in series [2] were 1.08 nM and 860 nM, respectively.

As for `C#CCN(c1ccc(C(=O)N[C@@H](CCC(=O)N(C)[C@@H](CCC(=O)O)C(=O)O)C(=O)O)cc1)C1CCc2cc3nc(C)[nH]c(=O)c3cc21` (mixture of isomers) [Example 13, N-{p-[N-((6RS)-2-Methyl-4-oxo-3,4,7,8-tetrahydro-6H-cyclopenta[g]quinazolin-6-yl)-N-(prop-2-ynyl)amino]benzoyl}-L-γ-glutamyl-N-methyl-L-glutamic acid], the IC50 came out at 1.42 nM in series [1] and 2300 nM in series [2].

On to `C#CCN(c1ccc(C(=O)N[C@@H](CCc2nnnn2CC(=O)N[C@H](C)C(=O)O)C(=O)O)cc1)C1CCc2cc3nc(C)nc(O)c3cc21` (some centres unmarked) [Example 16], for which the figures for the half-maximal inhibitory concentration (IC50) in series [1] and in series [2] were 3.4 nM and 10000 nM, respectively.

As for `C#CCN(c1ccc(C(=O)N[C@@H](CCCS(=O)(=O)c2nnc[nH]2)C(=O)O)cc1)C1CCc2cc3nc(C)[nH]c(=O)c3cc21` (mixture of isomers) [Example 17, (2S)-2-{p-[N-((6RS)-2-methyl-4-oxo-3,4,7,8-tetrahydro-6H-cyclopenta[g]quinazolin-6-yl)-N-(prop-2-ynyl)amino]benzamido}-5-(1H-1,2,4-triazol-3-ylsulphonyl)pentanoic acid], the IC50 was found to be 1.58 nM in series [1] (setting [5]) and 250 nM in series [2].

`Cc1nc2cc3c(cc2c(=O)[nH]1)C(N(C)c1ccc(C(=O)N[C@H](C(=O)O)c2ccc(CC(=O)O)cc2)c(F)c1)CC3` (mixture of isomers) [Example 8, (2S)-2-{o-fluoro-p-[N-methyl-N-((6RS)-2-methyl-4-oxo-3,4,7,8-tetrahydro-6H-cyclopenta[g]quinazolin-6-yl)amino]benzamido}-2-[p-(carboxymethyl)phenyl]acetic acid] yielded an IC50 in series [1] of 7.6 nM.

For the compound `C#CCN(c1ccc(C(=O)N[C@@H](CCc2nnnn2CCC(=O)O)C(=O)O)cc1)C1CCc2cc3nc(C)[nH]c(=O)c3cc21` (mixture of isomers) [Example 14, (2S)-2-{p-[N-((6RS)-2-methyl-4-oxo-3,4,7,8-tetrahydro-6H-cyclopenta[g]quinazolin-6-yl)-N-(prop-2-ynyl)amino]benzamido}-4-[1-(2-carboxyethyl)tetrazol-5-yl]butyric acid], the IC50 in series [1] amounted to 1.84 nM; in series [2], 630 nM.

With `C#CCN(Cc1ccc2nc(N)[nH]c(=O)c2c1)c1ccc(C(=O)N[C@@H](CCC(=O)O)C(=O)O)cc1` [CB3717], the “symptoms of toxicity in humans” value in series [3] is “shows symptoms of toxicity in humans, particularly in relation to the liver and kidneys”. The “activity against human breast, ovarian and liver cancer” value in series [4] was “promising activity against human breast, ovarian and liver cancer”.

Regarding `C#CCN(c1ccc(C(=O)N[C@@H](CCC(=O)N[C@@H](CCc2nnnn2CC(=O)O)C(=O)O)C(=O)O)cc1)C1CCc2cc3nc(C)[nH]c(=O)c3cc21` (mixture of isomers) [Example 15, (2S)-2-{N-{N-{p-[N-((6RS)-2-Methyl-4-oxo-3,4,7,8-tetrahydro-6H-cyclopenta[g]quinazolin-6-yl)-N-(prop-2-ynyl)amino]benzoyl}-L-γ-glutamyl}amino}-4-(1-carboxymethyltetrazol-5-yl)butyric acid], the figures for the IC50 in series [1] (setting [5]) and in series [2] were 1.08 nM and 7200 nM, respectively.
